{
  "source": "patent US6693134B2",
  "about": "“Bicyclic aromatic chemokine receptor ligands” (Chemokine Therapeutics Corporation, priority 2001, dated 2004)",
  "key": {"[1]": {"target": "T1, CXCR-4 (Homo sapiens, UniProt P61073)", "T1 sequence (P61073 whole entry)": "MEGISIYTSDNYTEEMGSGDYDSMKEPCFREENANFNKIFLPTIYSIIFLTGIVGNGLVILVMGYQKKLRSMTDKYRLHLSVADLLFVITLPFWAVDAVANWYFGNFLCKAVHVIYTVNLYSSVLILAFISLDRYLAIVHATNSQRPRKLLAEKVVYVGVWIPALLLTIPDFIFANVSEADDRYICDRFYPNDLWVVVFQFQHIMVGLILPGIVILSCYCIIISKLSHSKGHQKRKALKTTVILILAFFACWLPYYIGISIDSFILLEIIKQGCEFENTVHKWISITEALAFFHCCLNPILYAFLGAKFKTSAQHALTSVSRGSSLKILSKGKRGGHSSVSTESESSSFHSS", "assay": "Inhibition of SDF-1 induced intracellular [Ca2+]i mobilization in THP-1 cells", "type": "cell-based", "parameters": "endogenous in cells; host or cells: THP-1 cells", "settings": "Fura-2,AM loaded THP-1 cells; incubated 60 min prior to induction by 10 nM SDF-1", "description": "A rapid, transient rise in the free cytosolic Ca^2+ concentration ([Ca^2+]i) is one of the events associated with the Chemokine mediated induction of the associated receptors and is assumed to be involved in many of the subsequent cellular reactions. Both Ca^2+ release from intracellular stores and Ca^2+ influx from the extracellular space contribute to the rise in [Ca^2+]i. […] Fura-2,AM loaded THP-1 cells were incubated with CTCM226 for 60 min prior to induction of [Ca^2+]i mobilization by 10 nM SDF-1. Results illustrate the effect of CTCM226 (1) on SDF-1 induced Ca^2+ mobilization.\nIn accordance with this aspect of the invention, the naphthoic acid derivative, such as compound 1 or corresponding salts may be used for the treatment of a wide range of inflammatory diseases such as gout, arthritis, osteoarthritis, rheumatoid arthritis, and ARDS."}, "[2]": {"target": "T1, CXCR-4", "assay": "Inhibition of binding of I125 labeled SDF-1 to CXCR-4 receptor", "settings": "I125 labeled SDF-1 as competitor ligand", "description": "This example discloses the ability of compounds of the invention, such as naphthoic acid derivatives, such as CTCM226 (1), to inhibit binding of SDF-1 to CXCR-4 receptor. The binding studies were conducted using I^125 labeled SDF-1 as competitor ligand."}},
  "data": [
    {"compound": "O=C(O)c1cc2ccccc2cc1O", "note": "[Compound 1, 3-Hydroxy-2-naphthoic acid]", "values": [
      {"measurement": "IC50", "setting": "[1]", "result": 0.6, "unit": "µM"},
      {"measurement": "IC50", "setting": "[2]", "result": 150, "unit": "µM"}
    ]}
  ]
}
